Measurements from article PMC12203311, “Design, synthesis, in silico and in vitro evaluation of pyrrole–indole hybrids as dual tubulin and aromatase inhibitors with potent anticancer activities” (RSC Advances, 2025).

Columns and labels:
[1] = test system: T47D breast cancer cell line; assay: Cytotoxicity MTT assay, T47D; assay type: cell-based, human; conditions: for IC50: MTT, 48 hours; for activity against T47D in two-dose screen: 10 µM and 50 µM
Method: (§1) T47D (ATCC HTB-133) was purchased from Biomedia (Thailand) Co., LTD. L929 (ATCC CCL-1) was received as a gift from Prof. Tanapat Palaga, Department of Microbiology, Faculty of Science, Chulalongkorn University, Bangkok, Thailand. The cells were cultured in Dulbecco's Modified Eagle's Medium (DMEM; Gibco) supplemented with 10% fetal bovine serum (FBS; HyClone), 100 U mL^−1 penicillin and 100 µg mL^−1 streptomycin (Gibco) at 37 °C with 5% CO2.
(§2) The antiproliferative activity was determined by MTT assay. Briefly, the cells were plated into a 96-well microplate at the density of 10 000 cells per well. The cells were allowed to grow overnight before treated with the solutions of compounds in culture medium at the designated concentrations for 48 hours. The medium was then replaced with MTT solution (0.5 mg mL^−1 MTT in culture medium) and incubated for 3 hours. A 100 µL of DMSO was used to dissolve the produced formazan. Absorbance at 570 nm was then measured using a microplate reader (Varioskan™ LUX multimode microplate reader, Thermo Scientific™). Percent viability was calculated relative to the vehicle control (DMSO).

Human CYP19 (aromatase) = biological target: T1, Human CYP19 (aromatase) (Homo sapiens, UniProt P11511); assay: Aromatase inhibition assay (DBF fluorometric substrate); assay type: biochemical; conditions: active defined as IC50 < 12.5 µM
T1 construct: purchased GENTEST, Woburn, MA 456260; host or cells: baculovirus/insect cells
T1 sequence (P11511 1-503): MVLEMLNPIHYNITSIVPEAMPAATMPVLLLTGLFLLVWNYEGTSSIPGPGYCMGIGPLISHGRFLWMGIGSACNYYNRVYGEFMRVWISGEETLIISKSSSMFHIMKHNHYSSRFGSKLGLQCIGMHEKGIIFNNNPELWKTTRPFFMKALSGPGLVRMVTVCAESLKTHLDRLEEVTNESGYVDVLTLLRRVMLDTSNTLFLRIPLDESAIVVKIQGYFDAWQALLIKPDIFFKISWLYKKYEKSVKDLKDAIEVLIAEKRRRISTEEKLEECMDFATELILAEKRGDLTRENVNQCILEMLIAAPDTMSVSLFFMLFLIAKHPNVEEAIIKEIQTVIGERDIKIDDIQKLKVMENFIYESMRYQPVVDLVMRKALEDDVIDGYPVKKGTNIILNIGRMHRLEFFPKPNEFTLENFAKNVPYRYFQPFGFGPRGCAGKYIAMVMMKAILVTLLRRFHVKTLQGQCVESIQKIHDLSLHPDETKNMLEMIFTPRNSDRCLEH
Method: Aromatase enzyme was purchased from GENTEST, Woburn, MA01801, USA (Supersom human CYP19+oxidoreductase, baculovirus/insect cell-expressed; Product No. 456260). The aromatase inhibitory activity was performed using Human CYP19 enzymes and DBF as a fluorometric substrate as described by Stresser, et al.[41] with minor modifications. The mixture, containing 100 µL of cofactor/serial dilution buffer was pre-incubated in 37 °C for 10 min. […] After incubation at 37 °C for 30 min, the reaction was stopped by addition of 50 µL of 2.2 M NaOH. Fluorescence signal was monitored using an excitation wavelength of 490 nm and emission wavelength of 530 nm.

[2] = test system: NCI60 human cell line panel; assay: NCI60 one-dose screen; assay type: cell-based; conditions: 10 µM single dose
Method: The one-dose experimental protocol followed the method described in this literature.[28] First, all compounds were tested at a single concentration (10 µM) across the entire NCI60 panel. The results of this assay indicate the growth relative to no-drug control and the number of cells at time zero. This method allows for the detection of growth inhibition (values between 0 to 100) and lethality (value below 0).

[3] = Cytotoxicity MTT assay, L929; assay type: cell-based, mouse; conditions: mouse, L929 fibroblast cells; MTT, 48 hours
Method: as §1, §2

[4] = test system: L929 normal mouse fibroblast cell line; assay: Cytotoxicity MTT assay, L929; assay type: cell-based; conditions: IC50 (L929)/IC50 (T47D)
Method: as §1, §2

IC50 (Human CYP19 (aromatase)) [µM]	aromatase inhibition (Human CYP19 (aromatase))	Structure (SMILES)	activity against T47D in two-dose screen [1]	other results
–	–	N.N.[Cl][Pt][Cl] [Cisplatin, reference compound]	–	IC50 [1]: > 100 µM
11.3 ± 1.7	–	O=C(N/N=C/c1ccco1)c1[nH]c2ccc(Br)cc2c1-c1ccccc1 [Derivative 1a, reference compound]	–	–
> 12.5	lacked aromatase inhibition	O=C(N/N=C/c1cccs1)c1[nH]c2ccc(Br)cc2c1-c1ccccc1 [Derivative 2a, reference compound]	–	–
0.018 ± 0.002	–	CCOC(=O)c1cc[nH]c1/C=N/NC(=O)c1[nH]c2ccc(Br)cc2c1-c1ccccc1 [Derivative 3k, Ethyl (E)-2-((2-(5-bromo-3-phenyl-1H-indole-2-carbonyl)hydrazono)methyl)-1H-pyrrole-3-carboxylate]	–	IC50 ([1]; Homo sapiens, T47D): 10.6 ± 1.1 µM; NCI mean (mean growth percentage over the panel) [2]: 49%; IC50 at 48 h [3]: 15 ± 8.9 µM; Selectivity index (SI) [4]: 1.42
> 12.5	inactive against aromatase	O=C(O)c1ccc(/C=N/NC(=O)c2[nH]c3ccc(Br)cc3c2-c2ccccc2)[nH]1 [Derivative 3l, (E)-5-((2-(5-Bromo-3-phenyl-1H-indole-2-carbonyl)hydrazono)methyl)-1H-pyrrole-2-carboxylic acid]	weak activity	growth inhibition in the single dose experiment [2]: mild effects
> 12.5	inactive against aromatase	O=C(O)c1c[nH]c(/C=N/NC(=O)c2[nH]c3ccc(Br)cc3c2-c2ccccc2)c1 [Derivative 3m, (E)-5-((2-(5-Bromo-3-phenyl-1H-indole-2-carbonyl)hydrazono)methyl)-1H-pyrrole-3-carboxylic acid]	weak activity	growth inhibition in the single dose experiment [2]: mild effects
1.6 ± 0.4	–	O=C(N/N=C/c1cc(C(=O)N2CCOCC2)c[nH]1)c1[nH]c2ccc(Br)cc2c1-c1ccccc1 [Derivative 3o, (E)-5-Bromo-N′-((4-(morpholine-4-carbonyl)-1H-pyrrol-2-yl)methylene)-3-phenyl-1H-indole-2-carbohydrazide]	–	IC50 ([1]; Homo sapiens, T47D): 14.9 ± 1 µM; NCI mean (mean growth percentage over the panel) [2]: 45%; IC50 at 48 h [3]: 43.2 ± 9.9 µM
> 12.5	inactive against aromatase	O=C(O)c1cc(/C=N/NC(=O)c2[nH]c3ccc(Br)cc3c2-c2ccccc2)c[nH]1 [Derivative 3w, (E)-4-((2-(5-Bromo-3-phenyl-1H-indole-2-carbonyl)hydrazono)methyl)-1H-pyrrole-2-carboxylic acid]	weak activity	–
3.7 ± 0.6	–	O=C(N/N=C/c1c[nH]c(C(=O)N2CCOCC2)c1)c1[nH]c2ccc(Br)cc2c1-c1ccccc1 [Derivative 3x, (E)-5-Bromo-N′-((5-(morpholine-4-carbonyl)-1H-pyrrol-3-yl)methylene)-3-phenyl-1H-indole-2-carbohydrazide]	weak activity	–
